According to patent US20150216978A1, “MODULATORS OF DRUGS USING CARBOXYLESTERASE SELECTIVE INHIBITORS” (Rhode Island Board of Education, State of Rhode Island and …, priority 2013, published 2015):

What was measured:
CES2 [1] = target: T1, CES2 (Homo sapiens, UniProt O00748); test: Inhibition of carboxylesterases by Orlistat (human CES2); assay type: biochemical; conditions: Orlistat at 1 nM
T1 sequence (O00748 27-559): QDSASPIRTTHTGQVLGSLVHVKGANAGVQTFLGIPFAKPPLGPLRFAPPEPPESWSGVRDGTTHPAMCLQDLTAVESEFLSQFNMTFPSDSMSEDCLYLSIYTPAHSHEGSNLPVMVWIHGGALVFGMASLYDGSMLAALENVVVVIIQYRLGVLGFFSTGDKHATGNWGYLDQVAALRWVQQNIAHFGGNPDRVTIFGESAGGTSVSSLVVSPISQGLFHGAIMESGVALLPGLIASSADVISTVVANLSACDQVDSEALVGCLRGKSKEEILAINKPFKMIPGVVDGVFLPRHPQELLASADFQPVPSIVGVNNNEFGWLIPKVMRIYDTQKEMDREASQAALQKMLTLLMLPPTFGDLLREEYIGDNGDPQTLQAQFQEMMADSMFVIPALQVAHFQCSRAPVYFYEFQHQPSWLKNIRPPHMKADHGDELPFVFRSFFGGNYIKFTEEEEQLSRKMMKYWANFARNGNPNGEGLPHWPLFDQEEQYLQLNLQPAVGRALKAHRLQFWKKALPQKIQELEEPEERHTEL
Text: (§1) For a decade, Orlistat has been the most used anti-obesity drug. However, the use of Orlistat has been associated with fatal liver and kidney toxicity. This type of toxicity is rare, pointing to a compound effect of multiple factors. Specifically, we assumed that orlistat alters the activity of detoxification enzymes, which may have fatal effects when these factors are perfectly aligned. To shed light on this possibility, we tested Orlistat for the inhibition of carboxylesterases, a class of hydrolytic enzymes with known detoxication significance. […] Orlistat at 1 nM inhibited CES2 by 75%, but no inhibition was detected with CES1. […] In a striking contrast, rat ces1d and ces1e, two major forms of liver CESs, were resistant to Orlistat (Biochem Pharmacol. 2013, 85:439-447).

CES1 = target: T2, CES1 (Homo sapiens, UniProt P23141); test: Inhibition of carboxylesterases by Orlistat (human CES1); assay type: biochemical
T2 sequence (P23141 18-567): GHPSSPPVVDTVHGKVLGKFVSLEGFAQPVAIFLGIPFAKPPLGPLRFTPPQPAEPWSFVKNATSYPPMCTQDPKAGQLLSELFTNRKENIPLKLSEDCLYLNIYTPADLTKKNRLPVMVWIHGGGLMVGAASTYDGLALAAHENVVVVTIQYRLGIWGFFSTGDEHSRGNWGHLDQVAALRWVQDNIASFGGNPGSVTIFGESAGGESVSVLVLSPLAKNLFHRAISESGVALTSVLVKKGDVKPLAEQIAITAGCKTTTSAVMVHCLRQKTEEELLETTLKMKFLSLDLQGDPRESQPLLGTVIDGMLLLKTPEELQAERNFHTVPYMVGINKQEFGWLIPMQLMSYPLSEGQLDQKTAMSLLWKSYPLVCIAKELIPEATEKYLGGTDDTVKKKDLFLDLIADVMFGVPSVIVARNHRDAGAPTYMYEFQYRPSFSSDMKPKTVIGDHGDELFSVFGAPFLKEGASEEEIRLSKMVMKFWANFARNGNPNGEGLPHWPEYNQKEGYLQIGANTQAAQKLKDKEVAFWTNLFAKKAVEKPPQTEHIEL
Text: as §1

cells = test: Cell viability of cells treated with PPD in the presence or absence of Orlistat; assay type: cell-based
Experimental: To shed light on the clinical consequences of inhibited CES2 by Orlistat, cells were treated with PPD in the presence or absence of Orlistat. PPD is a carbamate anticancer prodrug and activated preferentially by CES2 hydrolysis of the ester side chain of the carbamate (20, 21). […] This finding was confirmed in CES2 induced condition (Brit J Pharmacol. 2013, 168:1989-1999).

mouse ces2c = target: T3, mouse ces2c (Mus musculus, UniProt Q91WG0); conditions: 1 nM Orlistat; cited from earlier work
T3 sequence (Q91WG0 27-561): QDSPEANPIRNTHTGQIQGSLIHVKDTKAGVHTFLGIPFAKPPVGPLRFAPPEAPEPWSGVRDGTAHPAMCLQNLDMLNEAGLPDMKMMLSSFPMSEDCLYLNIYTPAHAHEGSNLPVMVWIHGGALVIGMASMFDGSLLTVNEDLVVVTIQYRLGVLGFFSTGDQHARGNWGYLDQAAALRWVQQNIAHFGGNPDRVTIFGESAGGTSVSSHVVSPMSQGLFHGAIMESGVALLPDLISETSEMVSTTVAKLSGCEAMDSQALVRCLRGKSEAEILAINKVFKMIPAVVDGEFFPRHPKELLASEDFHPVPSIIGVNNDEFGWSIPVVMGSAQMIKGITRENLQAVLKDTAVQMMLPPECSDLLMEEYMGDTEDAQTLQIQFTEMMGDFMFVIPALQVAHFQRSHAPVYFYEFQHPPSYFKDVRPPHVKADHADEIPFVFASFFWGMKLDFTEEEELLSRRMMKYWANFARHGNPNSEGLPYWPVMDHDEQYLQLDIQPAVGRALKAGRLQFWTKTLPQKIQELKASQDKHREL

mouse ces2e = target: T4, mouse ces2e (Mus musculus, UniProt Q8BK48); conditions: 1 nM Orlistat; cited from earlier work
T4 sequence (Q8BK48 27-559): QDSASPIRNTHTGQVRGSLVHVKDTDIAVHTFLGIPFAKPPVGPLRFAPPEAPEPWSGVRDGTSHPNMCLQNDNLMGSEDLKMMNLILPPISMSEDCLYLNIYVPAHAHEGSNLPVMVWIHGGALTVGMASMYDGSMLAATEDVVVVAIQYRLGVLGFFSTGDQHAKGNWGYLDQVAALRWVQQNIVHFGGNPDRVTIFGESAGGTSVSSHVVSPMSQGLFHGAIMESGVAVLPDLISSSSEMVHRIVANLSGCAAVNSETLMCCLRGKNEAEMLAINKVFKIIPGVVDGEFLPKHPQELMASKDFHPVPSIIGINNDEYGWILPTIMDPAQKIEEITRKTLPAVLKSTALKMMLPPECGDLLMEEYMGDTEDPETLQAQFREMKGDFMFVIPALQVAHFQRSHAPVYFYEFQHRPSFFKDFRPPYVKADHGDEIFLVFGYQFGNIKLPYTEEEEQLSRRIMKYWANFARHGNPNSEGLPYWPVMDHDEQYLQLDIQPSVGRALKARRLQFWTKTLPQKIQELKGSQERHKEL

ces1d = target: T5, ces1d (Mus musculus, UniProt Q8VCT4); conditions: 1 nM Orlistat; cited from earlier work
T5 sequence (Q8VCT4 19-565): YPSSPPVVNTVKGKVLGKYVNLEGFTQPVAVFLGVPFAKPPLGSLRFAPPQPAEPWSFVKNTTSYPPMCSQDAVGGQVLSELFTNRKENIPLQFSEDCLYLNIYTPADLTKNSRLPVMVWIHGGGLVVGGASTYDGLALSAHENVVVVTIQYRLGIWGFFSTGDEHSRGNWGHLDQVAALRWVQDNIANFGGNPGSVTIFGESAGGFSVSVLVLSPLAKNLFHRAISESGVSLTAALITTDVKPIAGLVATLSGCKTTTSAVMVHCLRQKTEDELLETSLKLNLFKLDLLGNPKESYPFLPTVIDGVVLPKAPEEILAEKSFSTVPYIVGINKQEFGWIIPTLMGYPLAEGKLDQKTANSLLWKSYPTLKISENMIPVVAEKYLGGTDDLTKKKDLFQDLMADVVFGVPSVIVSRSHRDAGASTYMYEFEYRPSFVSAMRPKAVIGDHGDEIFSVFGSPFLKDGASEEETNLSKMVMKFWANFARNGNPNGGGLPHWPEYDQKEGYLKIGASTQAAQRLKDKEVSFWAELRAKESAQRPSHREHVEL

rat ces1d = target: T6, rat ces1d (Rattus norvegicus, UniProt P16303); conditions: major form of rat liver CES; cited from earlier work
T6 sequence (P16303 19-565): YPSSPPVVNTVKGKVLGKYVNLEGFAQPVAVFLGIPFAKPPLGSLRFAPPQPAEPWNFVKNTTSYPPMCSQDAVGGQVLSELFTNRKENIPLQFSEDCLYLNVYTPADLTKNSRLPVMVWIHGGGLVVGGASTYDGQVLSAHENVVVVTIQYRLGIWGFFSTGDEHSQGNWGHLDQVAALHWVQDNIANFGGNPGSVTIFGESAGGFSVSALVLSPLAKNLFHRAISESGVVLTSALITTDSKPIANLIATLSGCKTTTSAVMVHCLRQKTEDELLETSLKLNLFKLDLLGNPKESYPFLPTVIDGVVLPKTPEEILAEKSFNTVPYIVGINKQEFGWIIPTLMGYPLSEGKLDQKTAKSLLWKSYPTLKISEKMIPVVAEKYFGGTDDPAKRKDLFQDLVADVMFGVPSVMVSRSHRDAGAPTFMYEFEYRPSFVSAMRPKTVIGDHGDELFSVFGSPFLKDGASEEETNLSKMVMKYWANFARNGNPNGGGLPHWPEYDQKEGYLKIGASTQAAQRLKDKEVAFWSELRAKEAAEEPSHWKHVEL

rat ces1e = target: T7, rat ces1e (Rattus norvegicus, UniProt Q63108); conditions: major form of rat liver CES; cited from earlier work
T7 sequence (Q63108 19-561): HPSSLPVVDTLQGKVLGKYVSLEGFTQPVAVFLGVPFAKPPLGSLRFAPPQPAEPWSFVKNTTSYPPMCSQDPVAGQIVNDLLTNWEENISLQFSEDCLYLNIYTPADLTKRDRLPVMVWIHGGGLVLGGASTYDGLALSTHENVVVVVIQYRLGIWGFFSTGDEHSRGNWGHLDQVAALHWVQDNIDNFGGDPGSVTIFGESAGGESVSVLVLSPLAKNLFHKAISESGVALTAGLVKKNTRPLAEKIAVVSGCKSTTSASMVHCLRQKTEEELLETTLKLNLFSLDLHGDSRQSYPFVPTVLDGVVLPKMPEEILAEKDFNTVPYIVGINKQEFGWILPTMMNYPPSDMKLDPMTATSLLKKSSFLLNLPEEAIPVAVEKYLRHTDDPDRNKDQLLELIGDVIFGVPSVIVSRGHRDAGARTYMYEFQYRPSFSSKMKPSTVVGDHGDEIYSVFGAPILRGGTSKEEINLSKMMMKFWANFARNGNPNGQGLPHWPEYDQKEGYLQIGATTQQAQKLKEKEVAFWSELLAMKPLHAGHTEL

CES2 [2] = target: T1, CES2; test: Cellular inhibition of CES2 in LS180 cells, lysates tested by native gel electrophoresis and Western blotting; assay type: cell-based; set-up: endogenous in cells; host or cells: LS180
Experimental: The cellular activity of Orlistat was examined on the inhibition of CES2 within cells. To test this possibility, LS180 cells (a colon adenocarcinoma line) were treated with orlistat for 1-24 h, washed extensively to remove free Orlistat and lysed by sonication. The lysates were then tested for the hydrolytic activity by native gel electrophoresis. […] We next tested whether the less inhibition by prolonged incubation was due to increased expression of CES2. Western blotting was performed with the same gel stained for activity. As predicated, prolonged incubation increased CES2 expression (FIG. 3B). These findings established that regeneration of CES2 requires new synthesis of CES2.

CES2 [3] = target: T1, CES2; test: Irreversibility: human liver microsomes incubated with Orlistat, native gel electrophoresis, activity staining (CES2); assay type: biochemical; set-up: from tissue; host or cells: human liver microsomes
Experimental: It was tested whether the inhibition involves covalent interactions between Orlistat and CES2. Microsomes from human livers (CES1 and CES2) were incubated with Orlistat, resolved by native gel electrophoresis to remove free Orlistat, and stained for the remaining activity.

## CCCCCCCCCCC[C@@H](C[C@@H]1OC(=O)[C@H]1CCCCCC)OC(=O)[C@H](CC(C)C)NC=O [Orlistat]
CES2 [1]
  inhibition of CES2: 75%
CES1; 100 nM orlistat
  inhibition at 0.1 µM: ~30%
CES1; Orlistat at 1 nM
  inhibition of CES1: no inhibition
cells; PPD plus Orlistat
  reduction of cell viability by PPD (carbamate) in the presence of Orlistat: significantly reversed
cells; pretreatment with Orlistat
  reduction of the cell killing activity of PPD: ≤ 60%
cells; treatment with substance alone
  cell viability: no changes
Mouse ces2c
  inhibition of mouse ces2c: 90%
Mouse ces2e
  inhibition of mouse ces2e: 55%
ces1d
  inhibition of ces1d: 12%
Rat ces1d
  sensitivity of rat ces1d to Orlistat: resistant
Rat ces1e
  sensitivity of rat ces1e to Orlistat: resistant
CES2 [2]; 1-h incubation
  inhibition of CES2 activity in cells: ~80%
CES2 [2]; prolonged incubation 24 h
  CES2 expression (Western blotting): increased
  inhibition of CES2 activity in cells: less effective
CES2 [2]; treated for 6 h
  inhibition of CES2 activity in cells: Comparable inhibition
CES2 [3]; human liver microsomes, free Orlistat removed by native gel electrophoresis
  remaining activity of CES2 upon incubation with Orlistat: profoundly reduced
CES2 [3]; inhibition persists after removal of Orlistat by electrophoresis
  type of inhibition of CES2: irreversible inhibitor
